Measurements as given in patent publication US20220249413A1, “SWELL 1 MODULATORS FOR TREATMENT OF NON-ALCOHOLIC FATTY LIVER DISEASE, IMMUNE DEFICIENCIES, MALE INFERTILITY AND VASCULAR DISEASES” (priority 2019, published 2022).

Key:
[1] = Glucose-stimulated insulin secretion (plasma insulin and islet perifusion); assay type: in vivo, mouse; conditions: 21 weeks HFD mice
VRAC/ICl,SWELL = molecular target: T1, VRAC/ICl,SWELL (Homo sapiens, UniProt Q8IWT6); conditions: read-out: IC50 as VRAC/ICl,SWELL inhibitor; cited from earlier work
T1 sequence (Q8IWT6 1-810): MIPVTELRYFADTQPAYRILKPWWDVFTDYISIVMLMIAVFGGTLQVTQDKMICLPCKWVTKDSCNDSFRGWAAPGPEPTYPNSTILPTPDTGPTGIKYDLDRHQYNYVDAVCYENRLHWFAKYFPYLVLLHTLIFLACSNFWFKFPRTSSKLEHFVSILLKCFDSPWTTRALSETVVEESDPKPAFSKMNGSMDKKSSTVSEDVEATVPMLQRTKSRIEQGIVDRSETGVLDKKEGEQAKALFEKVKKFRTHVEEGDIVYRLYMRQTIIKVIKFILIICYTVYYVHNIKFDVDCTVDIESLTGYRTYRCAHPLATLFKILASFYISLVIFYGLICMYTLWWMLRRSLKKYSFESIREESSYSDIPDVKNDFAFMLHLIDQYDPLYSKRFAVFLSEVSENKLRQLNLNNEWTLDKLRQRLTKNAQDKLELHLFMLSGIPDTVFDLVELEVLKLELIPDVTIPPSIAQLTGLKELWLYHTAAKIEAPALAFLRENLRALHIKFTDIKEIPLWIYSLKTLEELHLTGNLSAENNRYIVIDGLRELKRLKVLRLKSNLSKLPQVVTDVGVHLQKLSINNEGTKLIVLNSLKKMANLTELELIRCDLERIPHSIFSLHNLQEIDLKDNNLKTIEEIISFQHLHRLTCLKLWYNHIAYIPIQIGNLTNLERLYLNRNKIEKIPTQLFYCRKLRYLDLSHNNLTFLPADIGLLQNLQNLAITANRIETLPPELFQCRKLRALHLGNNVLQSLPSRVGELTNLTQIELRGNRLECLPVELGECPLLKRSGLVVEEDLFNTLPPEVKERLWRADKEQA

[2] = NAFLD assessment: liver weight, histology, triglycerides, NAS in HFD mice; assay type: in vivo, mouse; conditions: HFD mice treated chronically and intermittently over 21 weeks
Procedure: Liver isolation, triglycerides and histology HFD mice treated with either vehicle or Smod1 were anesthesized with […] followed by cervical dislocation. Gross liver weights were measured and identical sections from right medial lobe of liver were dissected for further examinations. Total triglyceride content was determined by homogenizing 10-50 mg of tissue in 1.5 ml of chloroform:methanol (2:1 v/v) and centrifuged at 12000 rpm for 10 mins at 4° C. An aliquot, 20 ul, was evaporated in a 1.5 ml microcentrifuge tube for 30 mins. Triglyceride content was determined by adding 100 μl of Infinity Triglyceride Reagent (Fisher Scientific) to the dried sample followed by 30 min incubation at RT. The samples were then transferred to a 96 well plate along with standards (0-2000 mg/dl) and absorbance was measured at 540 nm and the final concentration was determined by normalizing to tissue weight. For histological examination, liver sections were fixed in 10% zinc formalin and paraffin embedded for sectioning. Haematoxylin and eosin (H&E) stained sections were then assessed for steatosis grade, lobular inflammation and hepatocyte ballooning for non-alcoholic fatty liver disease (NAFLD) scoring as described (Kleiner et al., Hepatology, 41, 1313-1321, 2005; Liang et al., PLoS One, 9, e115922, 2014; Rauckhorst et al., Mol Metab, 6, 1468-1479, 2017).

For CCCCC1(C2CCCC2)Cc2cc(OCCCC(=O)O)c(Cl)c(Cl)c2C1=O (stereo not drawn) [Smod1, 4-[(2-Butyl-6,7-dichloro-2-cyclopentyl-2,3-dihydro-1-oxo-1H-inden-5-yl)oxy]butanoic acid], which “glucose-stimulated insulin secretion (GSIS), serum insulin and perifusion of isolated islets” value [1] is on record?
The value was “significantly improved”.

What about the IC50 (VRAC/ICl,SWELL) of the same compound?
The IC50 was 2 to 4 µM.

And the “hepatic steatosis on histology” value [2]?
Its value is “marked reduction”.

And the liver triglycerides [2]?
The liver triglycerides was “marked reduction”.

What about the liver weights ([2]; 5 mg/kg i.p.) of the same compound?
The liver weights was “marked reduction”.

And the “NAFLD activity score (NAS)” value ([2]; vs vehicle)?
Its value is “significantly improved”.
